Data as given in US20060252823A1, “Isocoumarin-based inhibitors of urokinase-type plasminogen activator” (priority 2005, published 2006).
Where a name gives a salt, the structure may show the parent alone.

Columns and labels:
Human urokinase = target: T1, Human urokinase (Homo sapiens, UniProt P00749); assay: Kinetics of human urokinase inhibition with Spectrozyme UK substrate; format: biochemical; settings: for binding to uPA compared to unsubstituted counterparts: qualitative comparison of dissociation constants (Table 1); for fold improvement of Ki over 4d: compared to unsubstituted compound 4d; for Ki: human uPA, 0.1M Tris pH 8.8, 25° C., initial rate data
T1 construct: purchased Sigma/Aldrich
Description: Human urokinase (Sigma/Aldrich, St. Louis, Mo.) and Spectrozyme UK (American Diagnostica, Stamford, Conn.) were used for the kinetic studies. Enzyme activity was routinely measured in 1 ml volumes of 0.1M Tris, pH 8.8, Spectrozyme UK (10 μM to 150 μM) and 0.64 μg (3,770 units/mg protein) human urokinase. Reactions were monitored at 405 nm, 25° C., with a Perkin/Elmer Lambda S2 UV/vis spectrophotometer. Michaelis constants and Ki values were determined from initial rate data, measured at 8 to 10 substrate concentrations, by non-linear regression analysis with SigmaPlot's Enzyme Kinetics Module™ (Chicago, Ill., USA).

binding to uPA compared to unsubstituted counterparts (Human urokinase) | melting point [°C] | SMILES | further results
 | 112 to 113 | O=c1oc(OCCCBr)cc2ccc([N+](=O)[O-])cc12 [Compound 10b, 3-(3-Bromopropoxy)-7-nitroisocoumarin] | 
 | 95 to 97 | O=c1oc(OCCBr)cc2ccc([N+](=O)[O-])cc12 [Compound 10a, 3-(2-Bromoethoxy)-7-nitroisocoumarin] | 
did not show improved binding |  | O=C(c1c(OCCCBr)oc(=O)c2ccccc12)C(F)(F)F [Compound 10c, 3-(3-Bromopropoxy)-4-trifluoroacetylisocoumarin] | 
markedly improved binding | 214 to 216 | O=C(Nc1ccc2c(Cl)c(OCCBr)oc(=O)c2c1)c1ccccc1 [Compound 8a, 7-Benzamido-3-(2-bromoethoxy)-4-chloroisocoumarin] | 
 | 173 to 175 | Br.N=C(S)NCCOc1oc(=O)c2cc(NC(=O)c3ccccc3)ccc2c1Cl [Compound 9a, 7-Benzamido-4-chloro-3-(2-isothioureidoethoxy)isocoumarin hydrobromide] | 
markedly improved binding | 193 to 194 | O=C(Nc1ccc2c(Cl)c(OCCCBr)oc(=O)c2c1)c1ccccc1 [Compound 8b, 7-Benzamido-3-(3-bromopropoxy)-4-chloroisocoumarin] | fold improvement of Ki over 4d (Human urokinase): 300 fold; Ki (Human urokinase): 34 nM; dissociation constant (Human urokinase; in words): low nanomolar range

More lines, now with the values behind:

SMILES | binding to uPA compared to unsubstituted counterparts (Human urokinase) | melting point [°C] | further results
Br.NC(S)=NCCCOc1oc(=O)c2cc(NC(=O)c3ccccc3)ccc2c1Cl [Compound 9b, 7-Benzamido-4-chloro-3-(3-isothioureidopropoxy)isocoumarin hydrobromide] | did not exhibit any significant improvement in binding | 203 to 204 | 
O=c1oc(OCCCBr)c(Cl)c2ccc([N+](=O)[O-])cc12 [Compound 4b, 3-(3-Bromopropoxy)-4-chloro-7-nitroisocoumarin] | improved binding | 131 to 134 | fold improvement of Ki over 4d (Human urokinase): 8 fold; Ki (Human urokinase): 1200 nM
Nc1ccc2c(Cl)c(OCCBr)oc(=O)c2c1 [Compound 6a, 7-Amino-3-(2-bromoethoxy)4-chloroisocoumarin] |  | 134 to 136 | 
O=c1oc(OCCBr)c(Cl)c2ccc([N+](=O)[O-])cc12 [Compound 4a, 3-(2-Bromoethoxy)-4-chloro-7-nitroisocoumarin] | improved binding | 126 to 128 | 
Br.NC(S)=NCCCOc1oc(=O)c2ccccc2c1Cl [Compound 5d, 4-Chloro-3-(3-isothioureidopropoxy)isocoumarin hydrobromide] |  | 159 to 163 | 
Br.N=C(S)NCCCCOc1oc(=O)c2ccccc2c1Cl [Compound 5e, 4-Chloro-3-(4-isothioureidobutoxy)isocoumarin hydrobromide] |  | 159 to 161 | 
Br.NC(S)=NCCCOc1cc2ccc(N)cc2c(=O)o1 [Compound 7b, 7-Amino-3-(3-isothioureidopropoxy)isocoumarin hydrobromide] |  | 173 | 
O=c1oc(OCCBr)c(Cl)c2ccccc12 [Compound 4c, 3-(2-Bromoethoxy)-4-chloroisocoumarin] |  | 81 to 82 | 
Nc1ccc2c(Cl)c(OCCCBr)oc(=O)c2c1 [Compound 6b, 7-Amino-3-(3-bromopropoxy)-4-chloroisocoumarin] |  | 106 to 107 | 
Nc1ccc2cc(OCCBr)oc(=O)c2c1 [Compound 11, 7-Amino-3-(2-bromoethoxy)isocoumarin] |  | > 280 | 
N=C(N)SCCOc1oc(=O)c2ccccc2c1Cl [Compound 5c, 4-Chloro-3-(2-isothioureidoethoxy)isocoumarin hydrobromide] |  |  | Ki (Human urokinase): 27 nM
O=c1oc(OCCCCBr)c(Cl)c2ccccc12 [Compound 4e, 3-(4-Bromobutoxy)4-chloroisocoumarin] |  | 75 to 77 | 
Br.N=C(S)NCCOc1oc(=O)c2ccccc2c1Cl [Compound 5c, 4-Chloro-3-(2-isothioureidoethoxy)isocoumarin hydrobromide] |  | 168 to 170 | 
O=c1oc(OCCCBr)c(Cl)c2ccccc12 [Compound 4d, 3-(3-Bromopropoxy)-4-chloroisocoumarin] |  | 95 to 97 | type of inhibition of uPA (Human urokinase): simple competitive inhibition with no evidence of rapid inactivation; Ki (Human urokinase): 9000 nM
